35 molecules from US11021481B2, “Substituted isoindolin-1-ones and 2,3-dihydro-1h-pyrrolo[3,4-c]pyridin-1-ones as HPK1 antagonists” (Nimbus Saturn, Inc., priority 2019, dated 2021) can be followed below.

What is called IC50 is the midpoint of a concentration-inhibition curve.

For the assay, the target named is HPK1 (Homo sapiens (Human), UniProt Q92918). Briefly: HPK1 biochemical enzyme assay (microfluidic mobility shift assay). The following applies: 1.5 nM HPK1, ATP 1 mM final, 30 min preincubation, 60 min at RT, Caliper EZ Reader; read-out: HPK1 1000UMATP caliper IC50. The procedure, abridged: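 Mobility shift readout of HPK1 activity after a 60 min RT reaction with 1 mM ATP, 1 μM substrate and 5 mM MgCl2. Enzyme/substrate mix was first exposed to compounds for 30 min, using ten-point curves topping at 3 μM final.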
Sequence of HPK1 (Q92918 whole entry): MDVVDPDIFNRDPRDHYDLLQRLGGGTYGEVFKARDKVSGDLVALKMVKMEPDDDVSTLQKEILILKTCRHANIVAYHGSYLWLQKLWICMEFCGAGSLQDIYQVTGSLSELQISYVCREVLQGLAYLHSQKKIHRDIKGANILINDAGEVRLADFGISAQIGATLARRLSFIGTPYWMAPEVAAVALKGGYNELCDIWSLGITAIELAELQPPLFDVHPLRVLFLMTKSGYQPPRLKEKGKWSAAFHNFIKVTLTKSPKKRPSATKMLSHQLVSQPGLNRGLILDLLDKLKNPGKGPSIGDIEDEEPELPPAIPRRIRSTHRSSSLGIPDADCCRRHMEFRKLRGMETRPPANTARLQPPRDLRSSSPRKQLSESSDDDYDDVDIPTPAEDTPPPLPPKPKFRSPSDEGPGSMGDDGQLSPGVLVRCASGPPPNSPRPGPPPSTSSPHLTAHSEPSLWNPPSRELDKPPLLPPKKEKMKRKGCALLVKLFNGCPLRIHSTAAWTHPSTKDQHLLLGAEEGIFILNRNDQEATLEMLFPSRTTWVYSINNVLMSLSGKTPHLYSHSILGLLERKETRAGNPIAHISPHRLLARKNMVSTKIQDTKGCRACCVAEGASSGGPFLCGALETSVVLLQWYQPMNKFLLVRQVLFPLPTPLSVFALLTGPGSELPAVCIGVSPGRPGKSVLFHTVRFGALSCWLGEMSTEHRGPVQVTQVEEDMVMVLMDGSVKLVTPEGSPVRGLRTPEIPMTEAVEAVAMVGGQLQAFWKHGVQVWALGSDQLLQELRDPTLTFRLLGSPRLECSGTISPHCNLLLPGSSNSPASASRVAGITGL
Consider `COc1ccc2c(-c3ccc(Nc4ccc(N5CCN(C)CC5)cn4)c4c3CNC4=O)c[nH]c2c1` [I-28, 4-(6-methoxy-1H-indol-3-yl)-7-[[5-(4-methylpiperazin-1-yl)-2-pyridyl]amino] isoindolin-1-one], for which the IC50 was under 100 nM.

As to `Cc1ccc2c(-c3ccc(Nc4ccc(N5CCN(C)CC5)cn4)c4c3CNC4=O)c[nH]c2n1` [I-29, 7-[[5-(4-methylpiperazin-1-yl)-2-pyridyl]amino]-4-(6-methyl-1H-pyrrolo[2,3-b]pyridin-3-yl)-isoindolin-1-one], the IC50 was under 100 nM.

Regarding `Cc1cnc2[nH]cc(-c3ccc(Nc4ccc(N5CCN(C)CC5)cn4)c4c3CNC4=O)c2c1` [I-30, 7-[[5-(4-methylpiperazin-1-yl)-2-pyridyl]amino]-4-(5-methyl-1H-pyrrolo[2,3-b]pyridin-3-yl)-isoindolin-1-one], the IC50 is 100 to 1000 nM.

As to `CN1CCN(c2ccc(Nc3ccc(-c4ccnc5[nH]ccc45)c4c3C(=O)NC4)nc2)CC1` [I-31, 7-[[5-(4-methylpiperazin-1-yl)-2-pyridyl]amino]-4-(1H-pyrrolo[2,3-b]pyridin-4-yl)-isoindolin-1-one], the IC50 was under 100 nM.

Regarding `CN1CCN(c2ccc(Nc3ccc(-c4c[nH]c5cc(F)ccc45)c4c3C(=O)NC4)nc2)CC1` [I-32, 4-(6-fluoro-1H-indol-3-yl)-7-[[5-(4-methylpiperazin-1-yl)-2-pyridyl]amino] isoindolin-1-one], the IC50 was under 100 nM.

On to `CN1CCN(c2ccc(Nc3ccc(-c4ccnc5c4ccn5C)c4c3C(=O)NC4)nc2)CC1` [I-33, 7-[[5-(4-methylpiperazin-1-yl)-2-pyridyl]amino]-4-(1-methylpyrrolo [2,3-b]pyridin-4-yl)isoindolin-1-one], for which the 50% inhibitory concentration (IC50) was under 100 nM.

On to `CCc1[nH]c2ccccc2c1-c1ccc(Nc2ccc(N3CCN(C)CC3)cn2)c2c1CNC2=O` [I-34, 4-(2-ethyl-1H-indol-3-yl)-7-[[5-(4-methylpiperazin-1-yl)-2-pyridyl]amino] isoindolin-1-one], for which the IC50 was under 100 nM.

For `CN1CCN(c2ccc(Nc3ccc(-c4ccn5ccnc5c4)c4c3C(=O)NC4)nc2)CC1` [I-35, 4-imidazol[1,2-a]pyridin-7-yl-7-[[5-(4-methylpiperazin-1-yl)-2-pyridyl]amino] isoindolin-1-one], the IC50 was 100 to 1000 nM.

For the molecule `CN1CCN(c2ccc(Nc3ccc(-c4ccn5ncnc5c4)c4c3C(=O)NC4)nc2)CC1` [I-36, 7-[[5-(4-methylpiperazin-1-yl)-2-pyridyl]amino]-4-([1,2,4]triazolo [1,5-a]pyridin-7-yl)isoindolin-1-one], the IC50 lay in the range of 100 to 1000 nM.

As to `Cc1cc2[nH]cc(-c3ccc(Nc4ccc(N5CCN(C)CC5)cn4)c4c3CNC4=O)c2cn1` [I-37, 7-[[5-(4-methylpiperazin-1-yl)-2-pyridyl]amino]-4-(6-methyl-1H-pyrrolo[3,2-c]pyridin-3-yl)isoindolin-1-one], the concentration for half-maximal inhibition (IC50) is under 100 nM.

For `Cc1cc2c(-c3ccc(Nc4ccc(N5CCN(C)CC5)cn4)c4c3CNC4=O)ccnc2[nH]1` [I-38, 7-[[5-(4-methylpiperazin-1-yl)-2-pyridyl]amino]-4-(2-methyl-1H-pyrrolo[2,3-b]pyridin-4-yl)isoindolin-1-one], the half-inhibitory concentration (IC50) is under 100 nM.

For `CN1CCN(c2ccc(Nc3ccc(-c4cnc5ccccn45)c4c3C(=O)NC4)nc2)CC1` [I-39, 4-(imidazo[1,2-a]pyridin-3-yl)-7-((5-(4-methylpiperazin-1-yl)pyridin-2-yl)amino)isoindolin-1-one], the IC50 was under 100 nM.

Take `CN1CCN(c2ccc(Nc3ccc(-c4c(-c5ccccc5)[nH]c5ccccc45)c4c3C(=O)NC4)nc2)CC1` [I-40, 7-[[5-(4-methylpiperazin-1-yl)-2-pyridyl]amino]-4-(2-phenyl-1H-indol-3-yl)isoindolin-1-one]: the IC50 was under 100 nM.

Consider `CN1CCN(c2ccc(Nc3ccc(-c4cccc5[nH]ccc45)c4c3C(=O)NC4)nc2)CC1` [I-41, 4-(1H-indol-4-yl)-7-[[5-(4-methylpiperazin-1-yl)-2-pyridyl]amino] isoindolin-1-one], for which the half-inhibitory concentration (IC50) is under 100 nM.

`Cc1c[nH]c2nccc(-c3ccc(Nc4ccc(N5CCN(C)CC5)cn4)c4c3CNC4=O)c12` [I-42, 7-[[5-(4-methylpiperazin-1-yl)-2-pyridyl]amino]-4-(3-methyl-1H-pyrrolo[2,3-b]pyridin-4-yl)isoindolin-1-one]: the half-inhibitory concentration (IC50) is under 100 nM.

For the molecule `Cn1ccc2c(-c3ccc(Nc4ccc(N5CCNCC5)cn4)c4c3CNC4=O)ccnc21` [I-43], the 50% inhibitory concentration (IC50) was under 100 nM.

Regarding `CN1CCN(c2ccc(Nc3ccc(-c4cnc5c(ccn5C)c4)c4c3C(=O)NC4)nc2)CC1` [I-44, 7-[[5-(4-methylpiperazin-1-yl)-2-pyridyl]amino]-4-(1-methylpyrrolo [2,3-b]pyridin-5-yl)isoindolin-1-one], the IC50 lay within 100 to 1000 nM.

Take `CN1CCN(c2ccc(Nc3ccc(-c4cnc5[nH]ccc5c4)c4c3C(=O)NC4)nc2)CC1` [I-45, 7-[[5-(4-methylpiperazin-1-yl)-2-pyridyl]amino]-4-(1H-pyrrolo[2,3-b]pyridin-5-yl)isoindolin-1-one]: the IC50 is under 100 nM.

As for `CN1CCN(c2ccc(Nc3ccc(-c4c[nH]c5ccccc45)c4c3C(=O)NC4)nc2)CC1` [I-46, 4-(1H-indol-3-yl)-7-[[5-(4-methylpiperazin-1-yl)-2-pyridyl]amino] isoindolin-1-one], the IC50 is under 100 nM.

As to `COCCn1ccc2c(-c3ccc(Nc4ccc(N5CCN(C)CC5)cn4)c4c3CNC4=O)ccnc21` [I-47, 4-[1-(2-methoxyethyl)pyrrolo[2,3-b]pyridin-4-yl]-7-[[5-(4-methylpiperazin-1-yl)-2-pyridyl]amino] isoindolin-1-one], the IC50 is under 100 nM.

Regarding `CC(C)n1ccc2c(-c3ccc(Nc4ccc(N5CCN(C)CC5)cn4)c4c3CNC4=O)ccnc21` [I-48, 4-(1-isopropylpyrrolo [2,3-b]pyridin-4-yl)-7-[[5-(4-methylpiperazin-1-yl)-2-pyridyl]amino] isoindolin-1-one], the IC50 was in the range of 100 to 1000 nM.

For `CCn1ccc2c(-c3ccc(Nc4ccc(N5CCN(C)CC5)cn4)c4c3CNC4=O)ccnc21` [I-49], the IC50 is under 100 nM.

Take `Cc1nc2ccccn2c1-c1ccc(Nc2ccc(N3CCN(C)CC3)cn2)c2c1CNC2=O` [I-50, 4-(2-methylimidazo [1,2-a]pyridin-3-yl-)-7-[[5-(4-methylpiperazin-1-yl)-2-pyridyl]amino] isoindolin-1-1-one]: the IC50 lay in the range of 100 to 1000 nM.

Consider `Cc1ccc2ncc(-c3ccc(Nc4ccc(N5CCN(C)CC5)cn4)c4c3CNC4=O)n2c1` [I-51, 4-(6-methylimidazo [1,2-a]pyridin-3-yl-)-7-[[5-(4-methylpiperazin-1-yl)-2-pyridyl]amino] isoindolin-1-1-one], for which the IC50 is under 100 nM.

As to `Cc1cccn2c(-c3ccc(Nc4ccc(N5CCN(C)CC5)cn4)c4c3CNC4=O)cnc12` [I-52, 4-(8-methylimidazo [1,2-a]pyridin-3-yl-)-7-[[5-(4-methylpiperazin-1-yl)-2-pyridyl]amino] isoindolin-1-1-one], the IC50 is under 100 nM.

On to `CN1CCN(c2ccc(Nc3cnc(-c4c[nH]c5cc(F)ccc45)c4c3C(=O)NC4)nc2)CC1` [I-53, 4-(6-fluoro-1H-indol-3-yl)-7-[[5-(4-methylpiperazin-1-yl)-2-pyridyl]amino]-2,3-dihydropyrrolo [3,4-c]pyridin-1-one], for which the IC50 was in the range of 100 to 1000 nM.

For the molecule `Cc1cc2c(-c3ncc(Nc4ccc(N5CCN(C)CC5)cn4)c4c3CNC4=O)ccnc2[nH]1` [I-55, 7-[[5-(4-methylpiperazin-1-yl)-2-pyridyl]amino]-4-(2-methyl-1H-pyrrolo[2,3-b]pyridin-4-yl)-2,3-dihydropyrrolo [3,4-c]pyridin-1-one], the IC50 is under 100 nM.

Turning to `CN1CCN(c2ccc(Nc3cnc(-c4cnc5ccccn45)c4c3C(=O)NC4)nc2)CC1` [I-56, 4-(Imidazo[1,2-a]pyridin-3-yl)-7-((5-(4-methylpiperazin-1-yl)pyridin-2-yl)amino)-2,3-dihydro-1H-pyrrolo[3,4-c]pyridin-1-one], the IC50 is under 100 nM.

As to `CNC1CCN(c2ccc(Nc3ccc(-c4ccnc5[nH]ccc45)c4c3C(=O)NC4)nc2)CC1` [I-57, 7-[[5-[4-(methylamino)-1-piperidyl]-2-pyridyl]amino]-4-(1H-pyrrolo[2,3-b]pyridin-4-yl)isoindolin-1-one], the IC50 is under 100 nM.

With `CNC1CCN(c2ccc(Nc3ccc(-c4cnc5ccccn45)c4c3C(=O)NC4)nc2)CC1` [I-58, 4-imidazo[1,2-a]pyridin-3-yl-7-[[5-[4-(methylamino)-1-piperidyl]-2-pyridyl]amino] isoindolin-1-one], the half-maximal inhibitory concentration (IC50) was under 100 nM.

In the case of `CN1CCN(c2ccc(Nc3ccc(-c4cnc5cccnn45)c4c3C(=O)NC4)nc2)CC1` [I-59, 4-imidazo[1,2-b]pyridazin-3-yl-7-[[5-(4-methylpiperazin-1-yl)-2-pyridyl]amino] isoindolin-1-one], the IC50 was under 100 nM.

As for `O=C1NCc2c(-c3cnc4ccccn34)ccc(Nc3ccc(N4CCNCC4)cn3)c21` [I-60, 4-imidazo[1,2-a]pyridin-3-yl-7-[(5-piperazin-1-yl-2-pyridyl)amino] isoindolin-1-one], the IC50 was under 100 nM.

With `CN1CCN(c2ccc(Nc3ccc(-c4ccnc5c4cnn5C)c4c3C(=O)NC4)nc2)CC1` [I-61, 7-[[5-(4-methylpiperazn-1-yl)-2-pyridyl]amino]-4-(1-methylpyrazolo [3,4-b]pyridin-4-yl)isoindolin-1-one], the IC50 fell in the range of 100 to 1000 nM.

As for `CNC1CCN(c2ccc(Nc3ccc(-c4ccnc5c4ccn5C)c4c3C(=O)NC4)nc2)CC1` [I-62, 7-[[5-[4-(methylamino)-1-piperidyl]-2-pyridyl]amino]-4-(1-methylpyrrolo [2,3-b]pyridin-4-yl)isoindolin-1-one], the IC50 is under 100 nM.

As for `O=C1NCc2c(-c3cnc4ccccn34)ncc(Nc3ccc(N4CCNCC4)cn3)c21` [I-63, 4-imidazo[1,2-a]pyridin-3-yl-7-[(5-piperazin-1-yl-2-pyridyl)amino]-2,3-dihydropyrrolo [3,4-c]pyridin-1-one], the IC50 was under 100 nM.
